Source: article PMC11093748, “De novo identification of CD4^+ T cell epitopes” (Nature Methods, 2024)

How the values were obtained:
Test in all cases: I-Ag7 SABR-II library screen, enrichment score
Type in all cases: cell-based, mouse
TCR18 = tested on: TCR18
Source text: (§1) We then asked whether SABR-IIs could be used to present a library of epitopes for CD4^+ T cell antigen discovery. To that end, we constructed a SABR-II library to present epitopes derived from pancreatic islets in I-Ag7 by curating a list of 4,075 published epitopes from the Immune Epitope Database (iedb.org)[50] and a study by Wan et al.[51] (Supplementary Table 1). Of note, this defined library consisted of unmodified epitopes from endogenous proteins, synthetic mimotopes, deamidated epitopes and hybrid insulin peptides (HIPs) that arise from post-translational fusion and are not genetically encoded in vivo[52],[53]. The epitope library was inserted into the I-Ag7 SABR-II backbone through pooled oligonucleotide synthesis, amplification and ligation-free cloning (Extended Data Fig. 3a). The I-Ag7 SABR-II-library was then expressed in NFAT–GFP Jurkat cells. We confirmed that after sequencing, the library accounted for a mean of 708 reads per epitope (Extended Data Fig. 3b). As a proof of concept, we performed co-incubation assays with Jurkat cells expressing the BDC2.5 TCR and sorted the top 1–2% of GFP^+CD69^+ cells at a rate of ~20 min per replicate with three replicates per TCR. We extracted the genomic DNA from sorted cells, amplified the SABR portion of the integrated proviruses and subjected the amplicons to Illumina sequencing (Extended Data Fig. 3c,d). The 1–2% sort gate represents >50-fold enrichment of cognate epitopes with minimal loss of signal (Extended Data Fig. 3e–h). Sequence reads were aligned to the I-Ag7 SABR-II backbone and the corresponding epitopes were scored based on their read counts. For each TCR under investigation, an enrichment score (ES) was determined for all the epitopes in a library. In each experiment, three replicates of a sort with TCR-expressing Jurkat cells were performed and reads were counted post-sequencing. In addition, three replicates of the unsorted library were also sequenced. A linear regression model was built using the unsorted library counts and used to determine the expected abundance of each epitope in the library. The ES was calculated based on the difference between the measured and the expected abundance of each epitope on a per-TCR basis (Fig. 1e). Based on ES values, two quantitative thresholds were used to determine putative cognate epitopes of a given TCR. A high-confidence zone containing clear outliers with a high ES and a low-confidence zone containing weak outliers with a moderately high ES were determined (Fig. 1e). This two-tiered strategy was used to call putative hits from screens. All the top-scoring epitopes for the BDC2.5 TCR were known BDC2.5 ligands containing the WXRM(D/E) motif (Fig. 1f,g, enriched ligands in red), a well-characterized trait of the BDC2.5 TCR[43],[54]–[56]. Across several independent experiments there was limited variation in ES values for the same TCRs and several epitopes fell into high- or low-confidence zones consistently (Extended Data Fig. 4a). Using a different TCR that was isolated from NOD mice, 4-8Ins[57], which recognized the InsB9:23 epitope ([…]), we observed a similar pattern of ES for cognate epitopes (Extended Data Fig. 4b).
(§2) We performed systematic screening of the cloned TCRs against the I-Ag7 SABR-II library. Several TCRs along with a positive control (such as BDC2.5 or 4-8Ins) were screened individually against the library for each sort (Extended Data Fig. 6a and Supplementary Table 4). High- and low-confidence ES zones for each screened TCR were defined by the ES values of the control TCR’s cognate epitopes. For all putative cognate epitopes, single SABR-IIs were constructed, expressed in NFAT–GFP Jurkat cells and used for co-incubation with the corresponding TCRs. Co-incubation assays that yielded a GFP signal higher than that obtained in assays with no TCR were determined to be positive and the epitopes deemed true cognate ligands (Extended Data Fig. 6b,c). […]

TCR3 = tested on: TCR3
Source text: as §1, §2

TCR29 = conditions: TCR_Mean minus PREDICTED_TCR (slope 0.951614, intercept 1.18738e-5 on LIB_Mean), TCR 29, run PZ98
Source text: as §1, §2

TCR21B = conditions: TCR_Mean minus PREDICTED_TCR (slope 0.954708, intercept 1.11146e-5 on LIB_Mean), TCR 21B, run PZ56
Source text: as §1, §2

TCR9 = conditions: TCR_Mean minus PREDICTED_TCR (from LIB_Mean, SLOPE 0.950453, INTERCEPT 1.21587e-5), PZ47
Source text: as §1, §2

TCR34 = conditions: TCR_Mean minus PREDICTED_TCR (slope 0.916696, intercept 2.04427e-5 on LIB_Mean), TCR 34, run PZ57
Source text: as §1, §2

TCR10B = conditions: TCR_Mean minus PREDICTED_TCR (from LIB_Mean, SLOPE 0.894516, INTERCEPT 2.58857e-5), PZ51
Source text: as §1, §2

TCR8 = conditions: TCR_Mean minus PREDICTED_TCR (from LIB_Mean, SLOPE 0.946603, INTERCEPT 1.31036e-5), PZ47
Source text: as §1, §2

TCR32 = conditions: TCR_Mean minus PREDICTED_TCR (slope 0.962506, intercept 9.20103e-6 on LIB_Mean), TCR 32, run PZ98
Source text: as §1, §2

BDC2.5 TCR = conditions: for Enrichment score: I-Ag7 library
In short: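 NFAT–GFP Jurkat cells expressing an I-Ag7 SABR-II library of 4,075 islet-derived epitopes, CellTrace Violet-labelled, were co-incubated 16–20 h with equal numbers of TCR-expressing Jurkat cells. The top 1–2% GFP+CD69+ cells were sorted and epitopes sequenced, in triplicate. Enrichment score = measured minus expected abundance, from linear regression on unsorted library counts.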

[1] = I-Ag7 library, one biological experiment

Q: What does the source list for ALVREGLRNVAAGANP?
A: Enrichment score (TCR18; [1]): -1.951e-5; Enrichment score (TCR18; TCR18, TCR_Mean minus PREDICTED_TCR (from LIB_Mean, SLOPE 0.92089, INTERCEPT 1.94136e-5), PZ52): -1.951e-5; Enrichment score (TCR3; [1]): -2.328e-5; Enrichment score (TCR3; sheet TCR3-PZ37, ES = TCRObserved - TCRPredicted, TCRPredicted = LIBObserved x SLOPE + INTERCEPT, SLOPE 0.907522, INTERCEPT 2.2694e-5): -2.328e-5; Enrichment score (TCR29): -1.187e-5; Enrichment score (TCR21B): -1.174e-5; Enrichment score (TCR9): -9.186e-6; Enrichment score (TCR34): -2.044e-5; Enrichment score (TCR10B): -2.589e-5; Enrichment score (TCR8): -1.329e-5; Enrichment score (TCR32): -9.201e-6; Enrichment score (BDC2.5 TCR; EXPT1 of 8 biological experiments): -1.509e-5; Enrichment score (BDC2.5 TCR; EXPT2 of 8): -2.732e-5; Enrichment score (BDC2.5 TCR; EXPT3 of 8): -2.567e-5; Enrichment score (BDC2.5 TCR; EXPT4 of 8): -1.199e-5; Enrichment score (BDC2.5 TCR; EXPT6 of 8): -1.468e-5; Enrichment score (BDC2.5 TCR; EXPT7 of 8): -1.252e-5; Enrichment score (BDC2.5 TCR; EXPT8 of 8): -2.71e-5; Enrichment score (BDC2.5 TCR; one biological experiment (Ext. Data Fig. 6B)): -2.567e-5; Enrichment score EXPT1 (BDC2.5 TCR; sheet Fig 1F, whole library, independent biological experiment 1 of 8): -2.732e-5; Enrichment score EXPT2 (BDC2.5 TCR; sheet Fig 1F, whole library, independent biological experiment 2 of 8): -1.509e-5; Enrichment score EXPT3 (BDC2.5 TCR; sheet Fig 1F, whole library, independent biological experiment 3 of 8): -2.567e-5; Enrichment score EXPT5 (BDC2.5 TCR; sheet Fig 1F, whole library, independent biological experiment 5 of 8): -3.182e-5; Enrichment score EXPT7 (BDC2.5 TCR; sheet Fig 1F, whole library, independent biological experiment 7 of 8): -1.252e-5; Enrichment score EXPT8 (BDC2.5 TCR; sheet Fig 1F, whole library, independent biological experiment 8 of 8): -2.71e-5
